Experimental data taken from patent US20260364047A1, “METHODS OF SWITCHING NEUROPSYCHIATRIC MEDICATIONS USING ULOTARONT” (Sumitomo Pharma America, Inc., priority 2022, published 2026).
Entries after “also recorded” stand apart in the source; their conditions may differ.

Tests used:
[1] = Daily food intake of rats previously treated with olanzapine; settings: 3 mg/kg/day po
[2] = Changes in body weights of rats previously treated with olanzapine
[3] = Liver triglycerides of rats previously treated with olanzapine; settings: 3 mg/kg po; prior olanzapine 3 mg/kg po
[4] = Week 1 (Day 1-8), 3 mg/kg po, high-fat diet
[5] = Week 2 (Day 8-14), 3 mg/kg po, prior olanzapine 3 mg/kg po

Cc1cc2c(s1)Nc1ccccc1N=C2N1CCN(C)CC1 [Olanzapine, olanzapine]
Food intake compared to vehicle treated rats (in words) [1]: significantly increased | Increase in body weight, previously shown in-house ([2]; 3 mg/kg po, this model, earlier in-house experiments): 4-6% | Body weight compared to vehicle treated rats (in words) ([2]; 3 mg/kg/day po): An increase in body weight; also recorded: significantly increased body weight | Time to initial effects on body weight and food intake ([2]; 3 mg/kg/day po, as early as, following dosing): 2 to 3 days | Changes in body weights, Difference vs Vehicle (A) [2, 4]: 13.07 g | Changes in body weights, Mean [2, 4]: 25.48 g | Changes in body weights, Difference vs Vehicle (A) [2, 5]: 7.55 g | Changes in body weights, Mean [2, 5]: 16.70 g | Liver triglycerides (μmol total), % vs Vehicle (A) [3]: 100.4% | Liver triglycerides (μmol/g), % vs Vehicle (A) [3]: 100.0% | Liver triglycerides total, Mean [3]: 348 μmol total | Liver triglycerides, Mean [3]: 37.1 µmol/g
